Reference: patent publication US10770169B2, “Method of providing a treatment to a subject based on a dynamic pathway map” (THE REGENTS OF THE UNIVERSITY OF CALIFORNIA, priority 2010, dated 2020)
Read-outs that look alike come from different tables or passages of the source.

System: panel of 55 breast cancer cell lines
Assay: Cell growth inhibition assay (Cell Titer Glo, 72 h, 9 doses; GI50, TGI, LC50)
Format: cell-based, human
Details: Homo sapiens, read-out: GI50 (converted)
[1] = 600MPE cell line, censored GI50 values
[2] = AU565, AU565 cell line, censored GI50 values
[3] = BT-474, BT474 cell line, censored GI50 values
[4] = BT-483, BT483 cell line, censored GI50 values
[5] = HCC38, HCC38 cell line, censored GI50 values
[6] = HCC70, HCC70 cell line, censored GI50 values
[7] = HCC202, HCC202 cell line, censored GI50 values
[8] = HCC1143, HCC1143 cell line, censored GI50 values
[9] = HCC1187, HCC1187 cell line, censored GI50 values
[10] = HCC1395, HCC1395 cell line, censored GI50 values
[11] = HCC1419, HCC1419 cell line, censored GI50 values
[12] = HCC1428, HCC1428 cell line, censored GI50 values
[13] = HCC1500, HCC1500 cell line, censored GI50 values
[14] = HCC1806, HCC1806 cell line, censored GI50 values
[15] = HCC1954, HCC1954 cell line, censored GI50 values
[16] = HCC2185 cell line, censored GI50 values
[17] = HCC3153 cell line, censored GI50 values
[18] = LY2 cell line, censored GI50 values
[19] = MCF7, MCF7 cell line, censored GI50 values
[20] = MDA-MB-134-VI, MDAMB134VI cell line, censored GI50 values
[21] = MDA-MB-157, MDAMB157 cell line, censored GI50 values
[22] = MDA-MB-175-VII, MDAMB175VII cell line, censored GI50 values
[23] = MDA-MB-231, MDAMB231 cell line, censored GI50 values
[24] = MDA-MB-361, MDAMB361 cell line, censored GI50 values
[25] = MDA-MB-415, MDAMB415 cell line, censored GI50 values
[26] = MDA-MB-436, MDAMB436 cell line, censored GI50 values
[27] = MDA-MB-453, MDAMB453 cell line, censored GI50 values
[28] = MDA-MB-468, MDAMB468 cell line, censored GI50 values
[29] = SUM52PE, SUM52PE cell line, censored GI50 values
[30] = SUM185PE, SUM185PE cell line, censored GI50 values
[31] = SUM1315MO2, SUM1315MO2 cell line, censored GI50 values
[32] = SUM-159-PT, SUM159PT cell line, censored GI50 values
[33] = UACC-812, UACC812 cell line, censored GI50 values
[34] = UACC-893, UACC893 cell line, censored GI50 values
[35] = ZR-75-1, ZR751 cell line, censored GI50 values
[36] = ZR-75B, ZR75B cell line, censored GI50 values

`COc1cccc2c1C(=O)c1c(O)c3c(c(O)c1C2=O)C[C@@](O)(C(=O)CO)C[C@@H]3O[C@H]1C[C@H](N)[C@H](O)[C@H](C)O1` [Doxorubicin] was tested, and the GI50 [1] was 269 nM, the GI50 [2] was 93.3 nM and the GI50 (AU565, cell line AU565) was 93.3 nM. It also gave a GI50 [3] of 309 nM, a GI50 (BT-474, cell line BT474) of 309 nM and a GI50 [4] of 151 nM. The GI50 (BT-483, cell line BT483) was 151 nM, the GI50 (CAMA-1, CAMA1 cell line, censored GI50 values) was 263 nM and the GI50 (CAMA-1, cell line CAMA1) was 263 nM. For the same compound, the GI50 [5] was 72.4 nM, the GI50 (HCC38, cell line HCC38) was 72.4 nM and the GI50 [6] was 2290 nM. It also gave a GI50 (HCC70, cell line HCC70) of 2290 nM, a GI50 [7] of 525 nM and a GI50 (HCC202, cell line HCC202) of 525 nM. For the same compound, the GI50 [8] was 525 nM, the GI50 (HCC1143, cell line HCC1143) was 525 nM and the GI50 [9] was 132 nM. It also gave a GI50 (HCC1187, cell line HCC1187) of 132 nM, a GI50 [10] of 251 nM and a GI50 (HCC1395, cell line HCC1395) of 251 nM. It also gave a GI50 [11] of 513 nM, a GI50 (HCC1419, cell line HCC1419) of 513 nM and a GI50 [12] of 1200 nM. The GI50 (HCC1428, cell line HCC1428) was 1200 nM, the GI50 [13] was 200 nM and the GI50 (HCC1500, cell line HCC1500) was 200 nM. For the same compound, the GI50 [14] was 162 nM, the GI50 (HCC1806, cell line HCC1806) was 162 nM and the GI50 [15] was 186 nM. For the same compound, the GI50 (HCC1954, cell line HCC1954) was 186 nM, the GI50 [16] was 69.2 nM and the GI50 [17] was 355 nM. The GI50 [18] was 195 nM, the GI50 [19] was 501 nM and the GI50 (MCF7, cell line MCF7) was 501 nM. The GI50 [20] was 1200 nM, the GI50 [21] was 398 nM and the GI50 (MDA-MB-157, cell line MDAMB157) was 398 nM. The GI50 [22] was 708 nM, the GI50 [23] was 214 nM and the GI50 (MDA-MB-231, cell line MDAMB231) was 214 nM. For the same compound, the GI50 [24] was 234 nM, the GI50 (MDA-MB-361, cell line MDAMB361) was 234 nM and the GI50 [25] was 372 nM. The GI50 (MDA-MB-415, cell line MDAMB415) was 372 nM, the GI50 [26] was 589 nM and the GI50 (MDA-MB-436, cell line MDAMB436) was 589 nM. The GI50 [27] was 214 nM, the GI50 (MDA-MB-453, cell line MDAMB453) was 214 nM and the GI50 [28] was 741 nM. It also gave a GI50 (MDA-MB-468, cell line MDAMB468) of 741 nM, a GI50 (SK-BR-3, SKBR3 cell line, censored GI50 values) of 126 nM and a GI50 (SK-BR-3, cell line SKBR3) of 126 nM. It also gave a GI50 [29] of 97.7 nM, a GI50 (SUM52PE, cell line SUM52PE) of 97.7 nM and a GI50 [30] of 309 nM. The GI50 (SUM185PE, cell line SUM185PE) was 309 nM, the GI50 [31] was 214 nM and the GI50 [32] was 347 nM. The GI50 (SUM-159-PT, cell line SUM159PT) was 347 nM, the GI50 [33] was 74.1 nM and the GI50 (UACC-812, cell line UACC812) was 74.1 nM. For the same compound, the GI50 [34] was 832 nM, the GI50 (UACC-893, cell line UACC893) was 832 nM and the GI50 [35] was 138 nM. It also gave a GI50 (ZR-75-1, cell line ZR751) of 138 nM, a GI50 (ZR-75-30, ZR7530 cell line, censored GI50 values) of 110 nM and a GI50 (ZR-75-30, cell line ZR7530) of 110 nM. The GI50 [36] was 251 nM, the GI50 (ZR-75B, cell line ZR75B) was 251 nM and the GI50 (cell line 600MPE) was 269 nM. For the same compound, the GI50 (cell line HCC2185) was 69.2 nM, the GI50 (cell line HCC3153) was 355 nM and the GI50 (cell line LY2) was 195 nM. For the same compound, the GI50 (cell line MDAMB134V) was 1200 nM, the GI50 (cell line MDAMB175V) was 708 nM and the GI50 (cell line SUM1315MO) was 214 nM.
In the case of `COc1cccc2c1C(=O)c1c(O)c3c(c(O)c1C2=O)C[C@@](O)(C(=O)CO)C[C@@H]3O[C@H]1C[C@H](N)[C@@H](O)[C@H](C)O1` [Epirubicin], the GI50 [1] is reported as 347 nM, the GI50 [2] is reported as 145 nM and the GI50 (AU565, cell line AU565) is reported as 145 nM. For the same compound, the GI50 [3] was 6760 nM, the GI50 (BT-474, cell line BT474) was 6760 nM and the GI50 [4] was 166 nM. It also gave a GI50 (BT-483, cell line BT483) of 166 nM, a GI50 (BT-549, BT549 cell line, censored GI50 values) of 204 nM and a GI50 (BT-549, cell line BT549) of 204 nM. It also gave a GI50 [5] of 93.3 nM, a GI50 (HCC38, cell line HCC38) of 93.3 nM and a GI50 [6] of 417 nM. It also gave a GI50 (HCC70, cell line HCC70) of 417 nM, a GI50 [7] of 603 nM and a GI50 (HCC202, cell line HCC202) of 603 nM. It also gave a GI50 [8] of 288 nM, a GI50 (HCC1143, cell line HCC1143) of 288 nM and a GI50 [9] of 1000 nM. It also gave a GI50 (HCC1187, cell line HCC1187) of 1000 nM, a GI50 [10] of 447 nM and a GI50 (HCC1395, cell line HCC1395) of 447 nM. It also gave a GI50 [11] of 708 nM, a GI50 (HCC1419, cell line HCC1419) of 708 nM and a GI50 [12] of 1350 nM. It also gave a GI50 (HCC1428, cell line HCC1428) of 1350 nM, a GI50 [13] of 245 nM and a GI50 (HCC1500, cell line HCC1500) of 245 nM. It also gave a GI50 [14] of 166 nM, a GI50 (HCC1806, cell line HCC1806) of 166 nM and a GI50 (HCC1937, HCC1937 cell line, censored GI50 values) of 204 nM. The GI50 (HCC1937, cell line HCC1937) was 204 nM, the GI50 [15] was 200 nM and the GI50 (HCC1954, cell line HCC1954) was 200 nM. It also gave a GI50 [16] of 126 nM, a GI50 [17] of 646 nM and a GI50 [18] of 214 nM. For the same compound, the GI50 [19] was 355 nM, the GI50 (MCF7, cell line MCF7) was 355 nM and the GI50 [20] was 1050 nM. The GI50 [21] was 550 nM, the GI50 (MDA-MB-157, cell line MDAMB157) was 550 nM and the GI50 [22] was 100 nM. It also gave a GI50 [23] of 269 nM, a GI50 (MDA-MB-231, cell line MDAMB231) of 269 nM and a GI50 [24] of 224 nM. It also gave a GI50 (MDA-MB-361, cell line MDAMB361) of 224 nM, a GI50 [25] of 263 nM and a GI50 (MDA-MB-415, cell line MDAMB415) of 263 nM. For the same compound, the GI50 [26] was 708 nM, the GI50 (MDA-MB-436, cell line MDAMB436) was 708 nM and the GI50 [27] was 224 nM. The GI50 (MDA-MB-453, cell line MDAMB453) was 224 nM, the GI50 [28] was 692 nM and the GI50 (MDA-MB-468, cell line MDAMB468) was 692 nM. It also gave a GI50 [29] of 295 nM, a GI50 (SUM52PE, cell line SUM52PE) of 295 nM and a GI50 (SUM149PT, SUM149PT cell line, censored GI50 values) of 219 nM. It also gave a GI50 (SUM149PT, cell line SUM149PT) of 219 nM, a GI50 [30] of 407 nM and a GI50 (SUM185PE, cell line SUM185PE) of 407 nM. It also gave a GI50 [31] of 36.3 nM, a GI50 [32] of 141 nM and a GI50 (SUM-159-PT, cell line SUM159PT) of 141 nM. It also gave a GI50 [33] of 251 nM, a GI50 (UACC-812, cell line UACC812) of 251 nM and a GI50 [34] of 776 nM. For the same compound, the GI50 (UACC-893, cell line UACC893) was 776 nM, the GI50 [35] was 251 nM and the GI50 (ZR-75-1, cell line ZR751) was 251 nM. For the same compound, the GI50 [36] was 115 nM, the GI50 (ZR-75B, cell line ZR75B) was 115 nM and the GI50 (cell line 600MPE) was 347 nM. The GI50 (cell line HCC2185) was 126 nM, the GI50 (cell line HCC3153) was 646 nM and the GI50 (cell line LY2) was 214 nM. It also gave a GI50 (cell line MDAMB134V) of 1050 nM, a GI50 (cell line MDAMB175V) of 100 nM and a GI50 (cell line SUM1315MO) of 36.3 nM.
